In patent publication US20040058948A1, “Mappicine analogs, methods of inhibiting retroviral reverse transcriptase and methods of treating retroviruses” (priority 2002, published 2004):

Key:
[1] = biological target: T1, RNA-dependent DNA polymerase activity of HIV reverse transcriptase (Human immunodeficiency virus type 1 group M subtype B, UniProt P04585); test: RNA-dependent DNA polymerase activity assay of HIV reverse transcriptase; format: biochemical, HIV-1; details: 10 μM inhibitor concentration, activity with analog / without analog x 100
T1 construct: made in house
Protocol: In separate, representative assays, mappicine analogs were tested for their ability to inhibit the RNA-dependent DNA polymerase activity of HIV reverse transcriptase and for their ability to inhibit the RNase H activity of HIV reverse transcriptase. The assay for RNA-dependent DNA polymerase activity is discussed in Borkow, G. et al., “Inhibition of the Ribonuclease H and DNA Polymerase Activities of HIV-1 Reverse Transcriptase by N-(4-tert-Butylbenzoyl)-2-hydroxy-1-naphthaldehyde Hydrazone,” Biochemistry 1997, 36, 3179-3185, a copy of which is attached hereto, and the disclosure of which is incorporated herein by reference. Assays were carried out in the absence and in the presence of mappicine analogs (10 μM final concentration). The results are reported as % residual activity, which is the RNA-dependent DNA polymerase activity of the enzyme in the presence of the mappicine analog divided by the RNA-dependent activity of the enzyme in the absence of the mappicine analog, multiplied by 100.

[2] = biological target: RNase H activity of HIV reverse transcriptase (Human immunodeficiency virus type 1 group M subtype B, UniProt P04585); test: Fluorescence (FRET)-based RNase H activity assay of HIV reverse transcriptase; format: biochemical, HIV-1; design: final concentration of 2.5 nM of the p51/p66 RT heterodimer in the assay; made in house; details: 10 μM inhibitor concentration, activity with analog / without analog x 100
Protocol: Recently, a fluorescence-based assay to perform preliminary screens in search of HIV RNase H inhibitors has been developed. The assay, which is carried out in 96-well microplates and is adaptable to robotics, is the first high-throughput screen for RNase H and is described in further detail in the Experimental section. HIV-1 RT and human RNase H were cloned, and thus comparative analysis of inhibitor action could be conducted simultaneously.
The assay for RNase H activity of HIV reverse transcriptase was the fluorescence-based assay described in detail in the Experimental section and discussed in U.S. Provisional Patent Application Serial No. 60/318,359. Assays were carried out in the absence and in the presence of mappicine analogs (10 μM final concentration). The results are reported as % residual activity, which is the RNase H activity of the enzyme in the presence of the mappicine analog divided by the RNase H activity of the enzyme in the absence of the mappicine analog, multiplied by 100. Alternatively, the results are reported as % inhibition, which is calculated as the ratio of the RNase H activity of the enzyme in the presence of the mappicine analog to the enzyme activity in the absence of the mappicine analog, multiplied by 100, and then subtracting this number from 100.
Assay for Ribonuclease H Activity Based on Fluorescence Resonance Energy Transfer (FRET)
Preparation of the Fluorophore-RNA/Quencher-DNA Hybrid Duplex Substrate.
The RNA/DNA hybrid duplex substrate for use in the assay comprises an RNA oligonucleotide of sequence 5′-GAU CUG AGC CUG GGA GCU-3′, modified at the 3′-end with Aminolink-2 and derivatized with fluorescein isothiocyanate, to provide a modified RNA oligonucleotide of the sequence 5′-GAU CUG AGC CUG GGA GCU-fluorescein-3′, annealed to a complementary DNA oligonucleotide of the sequence 5′-AGC TCC CAG GCT CAG ATC-3′ modified at the 5′-end with Aminolink-2 and derivatized with the FRET acceptor DABCYL succinimidyl ester, to provide a modified DNA oligonucleotide of the sequence 5′-DABCYL-AGC TCC CAG GCT CAG ATC-3′.
To prepare the 3′-fluorescein-RNA/5′-DABCYL-DNA hybrid duplex substrate, a known amount of 3′-fluorescein-RNA was dissolved in 20 mM Tris buffer (pH 8.0, 37° C.) to provide a final concentration of 5 μM. Two equivalents of the 5′-DABCYL-DNA oligonucleotide were added, and the mixture was heated to 90° C. for 5 min and cooled slowly to room temperature to allow duplex formation. The positioning of the fluorescein donor at the 3′-end of the RNA oligonucleotide and the DABCYL acceptor at the 5′-end of the DNA oligonucleotide provides a very close proximity of the donor and acceptor that results in a very intense quenching of the fluorescein emission in the intact RNA/DNA hybrid duplex substrate due to the spectral overlap of the fluorescence emission of fluorescein with the absorption spectrum of DABCYL. In addition, DABCYL is non-fluorescent, and thus cannot contribute any light emission. Both of these factors result in a very low background and provide a high signal-to-noise in the assay measurements. The ratio of the donor fluorescence in the absence and in the presence of its quencher is approximately fifteen-fold.
Microplate Assay Protocol for the Measurement of RNase H Activity Using the RNA/DNA Hybrid Duplex Substrate.
Reaction assay mixtures contained 5 μl of a stock solution of 2.5 μM RNA/DNA hybrid duplex substrate added to 85 μl of assay buffer (50 mM Tris, pH 8.0, 37° C., containing 60 mM KCl and 2.5 mM MgCl2), prepared in the wells of a 96-well fluorescence microtiter plate, and warmed to 37° C. using the temperature control of the SpectraMax Gemini XS microplate spectrofluorometer (Molecular Devices). Reactions were started by the addition of 5 μl of a solution of recombinant HIV-1 reverse transcriptase (usually providing a final concentration of 2.5 nM of the p51/p66 RT heterodimer in the assay), and mixing using the automatic mixing function of the microplate spectrofluorometer. […]

## CCc1c2c(nc3ccc(OC(C)=O)cc13)-c1cc(C(O)CC)c(C)c(=O)n1C2 (stereo not shown) [AG 7M, 2-Acetoxy-12-ethyl-7-(1-hydroxypropyl)-8-methyl-11H-indolizino[1,2-b]quinolin-9-one]
[1]; read-out: Residual activity (%) Polymerase
  remaining activity at 10 µM: 99%
[2]; read-out: Residual activity (%) RNase H
  remaining activity at 10 µM: 63%

## CCC(=O)c1cc2n(c(=O)c1C)Cc1c-2nc2ccccc2c1[Si](C)(C)C(C)(C)C [4Aακ]
[1]
  Residual activity (%) Polymerase: 43%
[2]
  Residual activity (%) RNase H: 76%

## Cc1c(C(O)C(C)(C)C)cc2n(c1=O)Cc1c-2nc2ccc(F)cc2c1[Si](C)(C)C(C)(C)C (racemic) [4Bβ]
[1]
  Residual activity (%) Polymerase: 49%
[2]
  Residual activity (%) RNase H: 113%

## Cc1c(C(=O)C(C)(C)C)cc2n(c1=O)Cc1c-2nc2ccc(F)cc2c1[Si](C)(C)C(C)(C)C [4Bβκ]
[1]
  Residual activity (%) Polymerase: 82%
[2]
  Residual activity (%) RNase H: 79%

## CCC(O)c1cc2n(c(=O)c1C)Cc1c-2nc2ccccc2c1[Si](C)(C)C (racemic) [AG 1M]
[1]; 10 µM
  Residual activity (%) Polymerase: 89%
[2]; 10 µM
  Residual activity (%) RNase H: 73%

## Cc1c(C(O)Cc2ccccc2)cc2n(c1=O)Cc1c-2nc2ccccc2c1[Si](C)(C)C(C)(C)C (racemic) [4Aε]
[1]
  Residual activity (%) Polymerase: 83%
[2]
  Residual activity (%) RNase H: 93%

## CCCCCCc1c2c(nc3ccc(F)cc13)-c1cc(C(=O)CC)c(C)c(=O)n1C2 [8Bακ]
[1]
  Residual activity (%) Polymerase: 64%
[2]
  Residual activity (%) RNase H: 103%

## CCC(=O)c1cc2n(c(=O)c1C)Cc1c-2nc2ccc(OC)cc2c1-c1ccccc1 [3Dακ]
[1]
  Residual activity (%) Polymerase: 76%
[2]
  Residual activity (%) RNase H: 104%

## CCc1c2c(nc3ccccc13)-c1cc(C(O)CC)c(C)c(=O)n1C2 (racemic) [AG 4M]
[1]
  Residual activity (%) Polymerase: 100%
[2]
  Residual activity (%) RNase H: 74%

## COc1ccc2nc3c(c(-c4ccccc4)c2c1)Cn1c-3cc(C(=O)Cc2ccccc2)c(C)c1=O [3Dεκ]
[1]
  Residual activity (%) Polymerase: 73%
[2]
  Residual activity (%) RNase H: 88%

## CCC(O)c1cc2n(c(=O)c1C)Cc1c-2nc2ccc(OC)cc2c1[Si](C)(C)C (racemic) [5Dα]
[1]
  Residual activity (%) Polymerase: 88%
[2]
  Residual activity (%) RNase H: 78%

## Cc1c(C(=O)CCC2CCCCC2)cc2n(c1=O)Cc1c-2nc2ccccc2c1[Si](C)(C)C(C)(C)C [4Aδκ]
[1]
  Residual activity (%) Polymerase: 39%
[2]
  Residual activity (%) RNase H: 102%

## Cc1c(C(O)CCC2CCCCC2)cc2n(c1=O)Cc1c-2nc2ccccc2c1[Si](C)(C)C (racemic) [5Aδ]
[1]
  Residual activity (%) Polymerase: 83%
[2]
  Residual activity (%) RNase H: 78%

## CCCCCCc1c2c(nc3ccccc13)-c1cc(C(=O)CC)c(C)c(=O)n1C2 [8Aακ]
[1]
  Residual activity (%) Polymerase: 53%
[2]
  Residual activity (%) RNase H: 77%

## CCCCCCc1c2c(nc3ccc(C)cc13)-c1cc(C(=O)CC)c(C)c(=O)n1C2 [8Cακ]
[1]
  Residual activity (%) Polymerase: 31%
[2]
  Residual activity (%) RNase H: 92%

## CCC(=O)c1cc2n(c(=O)c1C)Cc1c-2nc2ccc(F)cc2c1[Si](C)(C)C(C)(C)C [4Bακ]
[1]
  Residual activity (%) Polymerase: 42%
[2]
  Residual activity (%) RNase H: 77%

## CCC(O)c1cc2n(c(=O)c1C)Cc1c-2nc2ccc(OC)cc2c1[Si](C)(C)C(C)(C)C (stereo not shown) [4Dα]
[1]
  Residual activity (%) Polymerase: 77%
[2]
  Residual activity (%) RNase H: 79%

## COc1ccc2nc3c(c(-c4ccccc4)c2c1)Cn1c-3cc(C(=O)CCC2CCCCC2)c(C)c1=O [3Dδκ]
[1]
  Residual activity (%) Polymerase: 81%
[2]
  Residual activity (%) RNase H: 97%

## CCCCCCc1c2c(nc3ccc(OC)cc13)-c1cc(C(O)Cc3ccccc3)c(C)c(=O)n1C2 (stereo not shown) [8Dε]
[1]
  Residual activity (%) Polymerase: 73%
[2]
  Residual activity (%) RNase H: 82%

## Cc1c(C(=O)CCC2CCCCC2)cc2n(c1=O)Cc1c-2nc2ccc(F)cc2c1[Si](C)(C)C(C)(C)C [4Bδκ]
[1]
  Residual activity (%) Polymerase: 56%
[2]
  Residual activity (%) RNase H: 96%

## CCC(=O)c1cc2n(c(=O)c1C)Cc1c-2nc2ccc(OC)cc2c1[Si](C)(C)C [5Dακ]
[1]
  Residual activity (%) Polymerase: 50%
[2]
  Residual activity (%) RNase H: 86%

## CCC(=O)c1cc2n(c(=O)c1C)Cc1c-2nc2ccc(F)cc2c1[Si](C)(C)C [5Bακ]
[1]
  Residual activity (%) Polymerase: 74%
[2]
  Residual activity (%) RNase H: 89%

## Cc1c(C(=O)C(C)(C)C)cc2n(c1=O)Cc1c-2nc2ccc(F)cc2c1[Si](C)(C)C [5Bβκ]
[1]
  Residual activity (%) Polymerase: 63%
[2]
  Residual activity (%) RNase H: 100%

## Cc1c(C(O)C(C)(C)C)cc2n(c1=O)Cc1c-2nc2ccccc2c1[Si](C)(C)C (racemic) [5Aβ]
[1]
  Residual activity (%) Polymerase: 103%
[2]
  Residual activity (%) RNase H: 77%

## CCC(O)c1cc2n(c(=O)c1C)Cc1c-2nc2ccc(F)cc2c1[Si](C)(C)C (stereo not shown) [5Bα]
[1]
  Residual activity (%) Polymerase: 82%
[2]
  Residual activity (%) RNase H: 105%

## Cc1ccc2nc3c(c(-c4ccccc4)c2c1)Cn1c-3cc(C(=O)CCC2CCCCC2)c(C)c1=O [3Cδκ]
[1]
  Residual activity (%) Polymerase: 65%
[2]
  Residual activity (%) RNase H: 93%

## CCCCCCc1c2c(nc3ccccc13)-c1cc(C(O)Cc3ccccc3)c(C)c(=O)n1C2 (racemic) [8Aε]
[1]
  Residual activity (%) Polymerase: 58%
[2]
  Residual activity (%) RNase H: 71%

## COc1ccc2nc3c(c([Si](C)(C)C(C)(C)C)c2c1)Cn1c-3cc(C(O)CCC2CCCCC2)c(C)c1=O (racemic) [4Dδ]
[1]
  Residual activity (%) Polymerase: 51%
[2]
  Residual activity (%) RNase H: 87%

## Cc1c(C(O)CCC2CCCCC2)cc2n(c1=O)Cc1c-2nc2ccc(F)cc2c1[Si](C)(C)C(C)(C)C (stereo not shown) [4Bδ]
[1]
  Residual activity (%) Polymerase: 44%
[2]
  Residual activity (%) RNase H: 90%

## Cc1c(C(=O)CCC2CCCCC2)cc2n(c1=O)Cc1c-2nc2ccc(F)cc2c1-c1ccccc1 [3Bδκ]
[1]
  Residual activity (%) Polymerase: 59%
[2]
  Residual activity (%) RNase H: 93%

## Cc1ccc2nc3c(c(-c4ccccc4)c2c1)Cn1c-3cc(C(O)Cc2ccccc2)c(C)c1=O (racemic) [3Cε]
[1]
  Residual activity (%) Polymerase: 76%
[2]
  Residual activity (%) RNase H: 101%

## CCCCCCc1c2c(nc3ccc(OC)cc13)-c1cc(C(=O)CCC3CCCCC3)c(C)c(=O)n1C2 [8Dδκ]
[1]
  Residual activity (%) Polymerase: 65%
[2]
  Residual activity (%) RNase H: 90%

## Cc1c(C(O)C(C)(C)C)cc2n(c1=O)Cc1c-2nc2ccc(F)cc2c1-c1ccccc1 (racemic) [3Bβ]
[1]
  Residual activity (%) Polymerase: 78%
[2]
  Residual activity (%) RNase H: 75%

## CCCCCCc1c2c(nc3ccc(C)cc13)-c1cc(C(=O)Cc3ccccc3)c(C)c(=O)n1C2 [8Cεκ]
[1]
  Residual activity (%) Polymerase: 66%
[2]
  Residual activity (%) RNase H: 86%

## Cc1c(C(O)Cc2ccccc2)cc2n(c1=O)Cc1c-2nc2ccc(F)cc2c1[Si](C)(C)C(C)(C)C (stereo not shown) [4Bε]
[1]
  Residual activity (%) Polymerase: 61%
[2]
  Residual activity (%) RNase H: 89%
